Earlier results on one compound are cited in US20040170686A1, “Suspension vehicle for coated drug particles” (priority 2003, published 2004).

In this series the test system is gram-positive organisms. The following applies: gram-positive organisms incl. Staphylococcus, Streptococcus, Enterococcus, Bacillus, Corynebacterium.

As for `CC(=O)NC[C@H]1CN(c2ccc(N3CCOCC3)c(F)c2)C(=O)O1` [Linezolid, linezolid], the antibacterial activity result is “strong antibacterial activity”.
